This experiment addresses T1, Son of sevenless homolog 1 (Homo sapiens, UniProt Q07889).
T1 sequence (Q07889 whole entry): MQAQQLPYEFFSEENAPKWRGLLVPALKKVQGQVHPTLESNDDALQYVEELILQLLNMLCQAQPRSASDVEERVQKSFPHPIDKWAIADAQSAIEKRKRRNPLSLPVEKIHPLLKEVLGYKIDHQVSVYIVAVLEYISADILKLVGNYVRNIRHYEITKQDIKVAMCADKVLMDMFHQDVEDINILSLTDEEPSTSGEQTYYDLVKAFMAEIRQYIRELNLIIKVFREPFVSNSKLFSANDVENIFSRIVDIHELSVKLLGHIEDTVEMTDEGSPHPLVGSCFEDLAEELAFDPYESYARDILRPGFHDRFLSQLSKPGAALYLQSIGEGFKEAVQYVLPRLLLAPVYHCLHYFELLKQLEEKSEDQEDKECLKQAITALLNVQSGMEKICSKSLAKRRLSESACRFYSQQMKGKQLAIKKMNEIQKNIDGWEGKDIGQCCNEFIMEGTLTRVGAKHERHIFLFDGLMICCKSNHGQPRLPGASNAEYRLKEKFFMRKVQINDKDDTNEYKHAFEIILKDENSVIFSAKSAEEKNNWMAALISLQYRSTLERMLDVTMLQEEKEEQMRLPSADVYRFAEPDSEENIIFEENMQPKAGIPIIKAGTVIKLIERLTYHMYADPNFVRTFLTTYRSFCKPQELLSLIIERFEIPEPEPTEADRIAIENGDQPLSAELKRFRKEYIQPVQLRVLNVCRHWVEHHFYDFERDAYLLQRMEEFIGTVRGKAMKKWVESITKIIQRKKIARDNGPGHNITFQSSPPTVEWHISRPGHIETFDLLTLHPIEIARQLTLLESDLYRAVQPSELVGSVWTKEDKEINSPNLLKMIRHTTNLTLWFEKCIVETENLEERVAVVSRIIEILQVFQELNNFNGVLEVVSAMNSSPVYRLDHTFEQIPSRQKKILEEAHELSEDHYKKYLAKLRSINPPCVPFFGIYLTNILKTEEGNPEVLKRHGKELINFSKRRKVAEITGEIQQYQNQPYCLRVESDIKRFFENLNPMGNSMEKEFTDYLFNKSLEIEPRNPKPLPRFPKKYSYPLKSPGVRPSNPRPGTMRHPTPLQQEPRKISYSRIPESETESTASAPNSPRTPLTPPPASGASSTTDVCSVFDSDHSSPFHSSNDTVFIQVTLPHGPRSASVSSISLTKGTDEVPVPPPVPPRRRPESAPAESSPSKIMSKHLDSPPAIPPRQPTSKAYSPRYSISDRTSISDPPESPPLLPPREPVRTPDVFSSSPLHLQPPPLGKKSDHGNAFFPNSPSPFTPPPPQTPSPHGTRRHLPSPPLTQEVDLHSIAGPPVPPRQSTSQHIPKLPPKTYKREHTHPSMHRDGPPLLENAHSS
The experiment is described as follows: SOS1-KRas (G12C) FRET Assay. The method, then:
Inhibition of the SOS1: KRAS interaction was measured using purified GST-tagged KRAS (res. 1-169, G12C, purified based on Hillig, et al., Proc Natl Acad Sci USA (2019); 116 (7): 2551-2560) and recombinant His10-SOS1 (res. 564-1049; purified based on Hillig, et al.). The final assay was performed at 20 uL with 0.5 nM SOS1 protein and 2.5 nM KRAS protein in a buffer of PBS, 0.1% BSA, 5 mM MgCl2, 0.0025% Igepal, 100 mM KF, 5 mM DTT in a white 384 square well OptiPlate (PerkinElmer, Cat. 6007290). A 2×KRAS working solution was prepared in an assay buffer containing 5 nM GST-KRAS G12C and 2 nM anti-GST-Eu (K) (Cisbio, Cat. 61GSTKLA) and pre-incubated for 15 minutes at 25° C. Compounds were serially diluted in 100% DMSO from 2 mM (positive control, compound I-13, PCT Publ. No. WO2018/115380) or 20 mM and then diluted 1:20 in assay buffer before incubation with a solution of SOS1 protein mixed 1:5 with anti-6His-XL665 FRET […] (Cisbio, Cat. 61HISXL) for 15 minutes at 25° C. before addition of 2×KRAS working solution. The final DMSO concentration is 0.5%. Plates were incubated at RT for 2 hrs before the FRET signal was measured using Envision at emission 665 nm and 615 nm.

We go through 1 compound from BindingDB's records for patent US20250368634 (SchroDinger, 2025).

The compound `C[C@@H](NC(=O)c1cc(N2CCOCC2)c(F)cc1N[C@H]1[C@@H]2CN(C)C[C@@H]21)c1cccc(C(F)F)c1F` [US20250368634, Example 55] gave an IC50 of 19.8 nM.

For orientation: IC50 means the midpoint of a concentration-inhibition curve.
